# How the values were obtained:
# rA2A receptor = conditions: read-out: Ki at rA2A receptor; cited from earlier work
# rat A2A AR = rat A2A AR (Rattus norvegicus, UniProt P30543); assay: Radioligand binding to rA2A AR
# Sequence of rat A2A AR (P30543 whole entry): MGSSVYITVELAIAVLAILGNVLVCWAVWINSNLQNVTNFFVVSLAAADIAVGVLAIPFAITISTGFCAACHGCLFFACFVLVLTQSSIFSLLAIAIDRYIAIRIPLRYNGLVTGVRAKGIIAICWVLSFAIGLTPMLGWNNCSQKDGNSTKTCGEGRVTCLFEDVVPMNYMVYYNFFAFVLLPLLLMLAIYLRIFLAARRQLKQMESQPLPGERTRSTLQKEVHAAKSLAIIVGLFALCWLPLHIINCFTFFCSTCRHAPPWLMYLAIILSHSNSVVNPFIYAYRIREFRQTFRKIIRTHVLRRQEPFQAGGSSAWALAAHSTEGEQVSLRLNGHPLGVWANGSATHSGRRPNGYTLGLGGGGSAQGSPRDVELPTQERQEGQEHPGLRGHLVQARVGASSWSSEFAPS
SMILES,Ki (rA2A receptor),Ki (rat A2A AR)
"Nc1nc(NCCc2ccc(O)cc2)nc2nc(-c3ccco3)nn12 [ZM241385, 4-(2-[7-amino-2-{2-furyl}{1,2,4}triazolo{2,3-a}{1,3,5,}triazin-5-ylamino]ethyl)phenol]",0.21 to 0.5 nM,
"CCCCCC(=O)Nc1nc(SC)nc2nc(-c3ccco3)nn12 [Compound 11, 2-(2-Furyl)-5-methylthio-7-n-pentylcarbonylamino-[1,2,4]-triazolo[1,5-a]-[1,3,5]triazine]",,180 to 400 nM
